# Test results taken from US8609608B2, “Antimicrobial peptides” (C3 Jian, Inc., priority 2007, dated 2013).
# Like-named read-outs stand apart in the source and are kept apart here. Where no end group is shown, it is not given here.
# Tests used:
# [1] = test system: clinical isolates of S. mutans; assay type: cell-based, Streptococcus mutans
# Method: S. mutans clinical isolates UA140 (32), UA159 (1), T8 (33), ATCC 25175, GS5 (Kuramitsu and Ingersoll (1977) Infect Immun., 17: 330-337), and all gram-positive strains listed below (see Table 9) were grown under anaerobic conditions in brain heart infusion or Todd-Hewitt (TH) broth (Difco) overnight at 37° C. prior to use (Eckert et al. (2006) Antimicrob. Agents Chemother. 50: 3651-3657). Veillonella atypica PK1910 was grown in Veillonella medium (Egland et al. (2004) Proc. Natl. Acad. Sci., USA, 101: 16917-16922). All strains were grown in an anaerobic atmosphere of 80% N2, 10% CO2, and 10% H2.
# Antibacterial growth inhibition assays were performed using sterile 96-well plates in a final volume of 100 μl, TH or Veillonella medium as described previously (Qi et al. (2005) FEMS Microbial Lett. 251: 321-326). Briefly, bacterial cells were grown overnight to an optical density at 600 nm of 0.75 to 0.8 (corresponding to 1×10^8 CFU/ml) and then diluted to 1×10^5 CFU/ml in broth and aliquoted onto plates. An appropriate volume of peptide stock solution (5 to 20 mg/ml, in water or methanol, depending on solubility) was then added to the first column of the plate to give 500 μg/ml or 512 μg/ml, followed by serial 1:2 dilutions across the plate to give wells containing peptides ranging from 500 to 1.95 μg/ml or 512 to 2 μg/ml. Methanol alone was also added to control for the effects of the solvent. The plates were then incubated at 37° C. under anaerobic conditions for 16 to 20 h without shaking, and the MIC was determined as the concentration of peptide present in the last clear well after visual inspection. Up to 5% (vol/vol) methanol was found not to be antimicrobial (data not shown). MICs were determined in triplicate for all bacteria.
# P. aeruginosa = assay: MIC against P. aeruginosa; assay type: cell-based, Pseudomonas aeruginosa
substance,measurement,setting,value
"RWRKRWK [Peptide 4C-4, RWRKRWK]",MIC,[1]; clinical isolates of,125 to 500 µg/mL
"RALHEAKEALK-OH [Peptide B-48, RALHEAKEALK]",MIC,[1]; clinical isolates of,>250 µg/mL
"RRRKWWK [Peptide 4C-1, RRRKWWK]",MIC,[1]; clinical isolates of,250 µg/mL
"VGKCVKLLY-NH2 [Peptide S6L1-4, VGKCVKLLY*]",MIC P. aeruginosa,P. aeruginosa,250 µg/mL
same,MIC S. aureus,S. aureus; Killing Peptide Library #7,500 µg/mL
same,MIC S. mutans,[1]; clinical isolates of,125 µg/mL
"RVLNQVKQILK [Peptide B-60, RVLNQVKQILK]",MIC,[1]; clinical isolates of,>125 µg/mL
"RRWWRRK [Peptide 3C-2, RRWWRRK]",MIC,[1]; clinical isolates of,125 µg/mL
"WRIHLRARLHVKFRF [Peptide S3L8-4, WRIHLRARLHVKFRF]",MIC P. aeruginosa,P. aeruginosa,>125 µg/mL
same,MIC S. aureus,S. aureus,62.5 µg/mL
same,MIC E. faecalis,E. faecalis,8 µg/mL
same,MIC L. casei,L. casei,8 µg/mL
"RRRWWWR [Peptide 1C-3, RRRWWWR]",MIC,[1]; clinical isolates of,32 µg/mL
"FHVKIHFRLHVKFHF [Peptide S3L8-7, FHVKIHFRLHVKFHF]",MIC P. aeruginosa,P. aeruginosa,>125 µg/mL
same,MIC S. aureus,S. aureus,>125 µg/mL
same,MIC E. faecalis,E. faecalis,>125 µg/mL
same,MIC L. casei,L. casei,16 µg/mL
"RLLKRFKHLFK-OH [Peptide B-36, RLLKRFKHLFK]",MIC,[1]; clinical isolates of,31.25 to 125 µg/mL
"LKQLKAGIY-NH2 [Peptide S6L1-3, LKQLKAGIY*]",MIC P. aeruginosa,P. aeruginosa,250 µg/mL
same,MIC S. aureus,S. aureus; Killing Peptide Library #7,>500 µg/mL
same,MIC S. mutans,[1]; clinical isolates of,>500 µg/mL
"RRRKWWK [Peptide 4C-3, RRRKWWK]",MIC,[1]; clinical isolates of,125 µg/mL
"FKKFWKWFRRFGGGRWRRLLKKLHHLLH-NH2 [FBα-12, FKKFWKWFRRF-GGG-RWRRLLKKLHHLLH*]",MIC (fusion library peptides),[1]; clinical isolates of,16 µg/mL
"YLLTEFQHLFK-OH [Peptide B-52, YLLTEFQHLFK]",MIC,[1]; clinical isolates of,>125 µg/mL
"KLKKLLKHLHHLLH-NH2 [α-12, KLKKLLKHLHHLLH*]",MIC,[1]; clinical isolates of,8 µg/mL
"VKNLAELVHRF-NH2 [Peptide B-45, VKNLAELVHRF*]",MIC,[1]; clinical isolates of,>250 µg/mL
"RRRWWWK [Peptide 3C-3, RRRWWWK]",MIC,[1]; clinical isolates of,31.25 to 125 µg/mL
"KLAENVKEILR-OH [Peptide B-47, KLAENVKEILR]",MIC,[1]; clinical isolates of,>250 µg/mL
"LQLLKQLLKLLKQF-NH2 [α-7, LQLLKQLLKLLKQF*]",MIC,[1]; clinical isolates of,8 µg/mL
"IKQLLHFFQRFGGGRWRRLLKKLHHLLH-NH2 [FBα-13, IKQLLHFFQRF-GGG-RWRRLLKKLHHLLH*]",MIC (fusion library peptides),[1]; clinical isolates of,16 µg/mL
"RILKELKNLFK-OH [Peptide B-40, RILKELKNLFK]",MIC,[1]; clinical isolates of,>250 µg/mL
"KLFKRWKHLFR-OH [Peptide B-35, KLFKRWKHLFR]",MIC,[1]; clinical isolates of,31.25 to 125 µg/mL
"RALKRIKHVLK [Peptide B-64, RALKRIKHVLK]",MIC,[1]; clinical isolates of,>125 µg/mL
"LKQFVKFIHRF-NH2 [Peptide B-57, LKQFVKFIHRF*]","activity against S. mutans by MIC, in words",[1],active but to a lesser degree than B-33 or B-34
same,MIC,[1]; clinical isolates of,24 µg/mL
"KLVEQLKEIFR-OH [Peptide B-43, KLVEQLKEIFR]",MIC,[1]; clinical isolates of,>250 µg/mL
"VFLHRHVIKHKLVF [Peptide S3L8-13, VFLHRHVIKHKLVF]",MIC P. aeruginosa,P. aeruginosa,>125 µg/mL
same,MIC S. aureus,S. aureus,>125 µg/mL
same,MIC E. faecalis,E. faecalis,125 µg/mL
same,MIC L. casei,L. casei,>62.5 µg/mL
"FHIKFRVHLKVRFHF [Peptide S3L8-6, FHIKFRVHLKVRFHF]",MIC P. aeruginosa,P. aeruginosa,>125 µg/mL
same,MIC S. aureus,S. aureus,>125 µg/mL
same,MIC E. faecalis,E. faecalis,>125 µg/mL
same,MIC L. casei,L. casei,8 µg/mL
"FKAHIRFKLRVKFHF [Peptide S3L8-10, FKAHIRFKLRVKFHF]",MIC P. aeruginosa,P. aeruginosa,>125 µg/mL
same,MIC S. aureus,S. aureus,>125 µg/mL
same,MIC E. faecalis,E. faecalis,>125 µg/mL
same,MIC L. casei,L. casei,8 µg/mL
"FLHKHVLRHRIVF [Peptide S3L8-14, FLHKHVLRHRIVF]",MIC P. aeruginosa,P. aeruginosa,>125 µg/mL
same,MIC S. aureus,S. aureus,>125 µg/mL
same,MIC E. faecalis,E. faecalis,>125 µg/mL
same,MIC L. casei,L. casei,>62.5 µg/mL
"KLKKLLKRWRRWWR-OH [α-10, KLKKLLKRWRRWWR]",MIC,[1]; clinical isolates of,8 µg/mL
"RRWKRRK [Peptide 4C-2, RRWKRRK]",MIC,[1]; clinical isolates of,500 µg/mL
"FKTFLKWLHRF-NH2 [Peptide B-37, FKTFLKWLHRF*]","activity against S. mutans by MIC, in words",[1],active but to a lesser degree than B-33 or B-34
same,MIC,[1]; clinical isolates of,24 µg/mL
"VKQLLKIFNRF-NH2 [Peptide B-58, VKQLLKIFNRF*]","activity against S. mutans by MIC, in words",[1],active but to a lesser degree than B-33 or B-34
same,MIC,[1]; clinical isolates of,32 to 62.5 µg/mL
"FHYFWHWFHRF-NH2 [Peptide B-49, FHYFWHWFHRF*]","activity against S. mutans by MIC, in words",[1],weakly active
same,MIC,[1]; clinical isolates of,125 µg/mL
"RWRWRWK [Peptide 3C-4, RWRWRWK]",MIC,[1]; clinical isolates of,32 µg/mL
"AKRLLKVLKRF-NH2 [Peptide B-62, AKRLLKVLKRF*]",MIC,[1]; clinical isolates of,16 to 32 µg/mL
"LKQKLKILF-NH2 [Peptide S6L1-2, LKQKLK1LF*]",MIC P. aeruginosa,P. aeruginosa; Killing Peptide Library #7,>500 µg/mL
same,MIC S. aureus,S. aureus; Killing Peptide Library #7,>500 µg/mL
same,MIC S. mutans,[1]; Killing Peptide Library #7,125 µg/mL
"LKQFVHFIHRF-NH2 [Peptide B-41, LKQFVHFIHRF*]","activity against S. mutans by MIC, in words",[1],active but to a lesser degree than B-33 or B-34
same,MIC,[1]; clinical isolates of,32 µg/mL
"KLVQQLKNIFR-OH [Peptide B-59, KLVQQLKNIFR]",MIC,[1]; clinical isolates of,>125 µg/mL
"RVLQEIKQILK-OH [Peptide B-44, RVLQEIKQILK]",MIC,[1]; clinical isolates of,>250 µg/mL
"RRRFWWR [Peptide 2C-1, RRRFWWR]",MIC,[1]; clinical isolates of,31.25 to 125 µg/mL
"LHIHAHFHVHIHLHF [Peptide S3L8-8, LHIHAHFHVHIHLHF]",MIC P. aeruginosa,P. aeruginosa,>125 µg/mL
same,MIC S. aureus,S. aureus,>125 µg/mL
same,MIC E. faecalis,E. faecalis,>125 µg/mL
same,MIC L. casei,L. casei,>62.5 µg/mL
"RFRHFQERY-NH2 [Peptide S6L1-8, RFRHFQERY*]",MIC P. aeruginosa,P. aeruginosa,>500 µg/mL
same,MIC S. aureus,S. aureus; Killing Peptide Library #7,125 µg/mL
same,MIC S. mutans,[1]; clinical isolates of,64 µg/mL
"ATHLLHALQRF-NH2 [Peptide B-46, ATHLLHALQRF*]",MIC,[1]; clinical isolates of,>250 µg/mL
"RRRRWWK [Peptide 3C-1, RRRRWWK]",MIC,[1]; clinical isolates of,125 µg/mL
"KLVKLVFLY-NH2 [Peptide S6L1-6, KLVKLVFLY*]",MIC P. aeruginosa,P. aeruginosa,>500 µg/mL
same,MIC S. aureus,S. aureus; Killing Peptide Library #7,>500 µg/mL
same,MIC S. mutans,[1]; clinical isolates of,125 µg/mL
"AQAAHQAAHAAHQF-NH2 [α-4, AQAAHQAAHAAHQF*]","activity against S. mutans by MIC, in words",[1],inactive
same,MIC,[1]; clinical isolates of,>125 µg/mL
"KLKKLLKKLKKLLK [α-5, KLKKLLKKLKKLLK]",MIC,[1]; clinical isolates of,8 µg/mL
"FKTFLQWLHRF-NH2 [Peptide B-53, FKTFLQWLHRF*]","activity against S. mutans by MIC, in words",[1],active but to a lesser degree than B-33 or B-34
same,MIC,[1]; clinical isolates of,16 to 64 µg/mL
"IKVFAKQKY-NH2 [Peptide S6L1-7, IKVFAKQKY*]",MIC P. aeruginosa,P. aeruginosa,>500 µg/mL
same,MIC S. aureus,S. aureus; Killing Peptide Library #7,>500 µg/mL
same,MIC S. mutans,[1]; clinical isolates of,>500 µg/mL
"AQAAKQAAKAAKQF-NH2 [α-8, AQAAKQAAKAAKQF*]","activity against S. mutans by MIC, in words",[1],inactive
same,MIC,"[1]; MIC range or value from all S. mutans isolates tested, binary, alpha-helix and RW libraries",>125 µg/mL
"KLLQTFKQIFR-OH [Peptide B-39, KLLQTFKQIFR]",MIC,[1]; clinical isolates of,>250 µg/mL
"RRWWRRF-NH2 [Peptide 2C-2, RRWWRRF*]",MIC,[1]; clinical isolates of,12 to 24 µg/mL
"RRRRWWW [Peptide 1C-1, RRRRWWW]",MIC,[1]; clinical isolates of,16 µg/mL
"VFIVWVHKHVLF [Peptide S3L8-2, VFIVWVHKHVLF]",MIC P. aeruginosa,P. aeruginosa,>125 µg/mL
same,MIC S. aureus,S. aureus,>125 µg/mL
same,MIC E. faecalis,E. faecalis,>125 µg/mL
same,MIC L. casei,L. casei,>62.5 µg/mL
"IKTLLHFFQRF-NH2 [Peptide B-54, IKTLLHFFQRF*]","activity against S. mutans by MIC, in words",[1],active but to a lesser degree than B-33 or B-34
same,MIC,[1]; clinical isolates of,32 to 62.5 µg/mL
"YLFQTWQHLFR-OH [Peptide B-51, YLFQTWQHLFR]",MIC,[1]; clinical isolates of,>125 µg/mL
"KLLQTFNQIFR-OH [Peptide B-55, KLLQTFNQIFR]",MIC,[1]; clinical isolates of,>125 µg/mL
"RRWWRRW [Peptide 1C-2, RRWWRRW]",MIC,[1]; clinical isolates of,16 µg/mL
"KFVKLILAY-NH2 [Peptide S6L1-5, KFVKLI LAY*]",MIC P. aeruginosa,P. aeruginosa,92 µg/mL
same,MIC S. aureus,S. aureus; Killing Peptide Library #7,>500 µg/mL
same,"activity against S. mutans by MIC, in words",[1],moderate activity
same,MIC S. mutans,[1]; clinical isolates of,32 µg/mL
"KLAQKVKRVLR [Peptide B-63, KLAQKVKRVLR]",MIC,[1]; clinical isolates of,>125 µg/mL
"VKKLAKLVRRF-NH2 [Peptide B-61, VKKLAKLVRRF*]",MIC,[1]; clinical isolates of,16 to 32 µg/mL
"LYHFLHWFQRF-NH2 [Peptide B-50, LYHFLHWFQRF*]","activity against S. mutans by MIC, in words",[1],weakly active
same,MIC,[1]; clinical isolates of,125 µg/mL
"RWRWRWR [Peptide 1C-4, RWRWRWR]",MIC,[1]; clinical isolates of,32 µg/mL
"VKTLLHIFQRF-NH2 [Peptide B-42, VKTLLHIFQRF*]",MIC,[1]; clinical isolates of,31.25 to 125 µg/mL
"RWRRWWRHFHHFFH-NH2 [α-9, RWRRWWRHFHHFFH*]",MIC,[1]; clinical isolates of,8 µg/mL
